Experimental data as given in ChEMBL document CHEMBL1800013, “Small molecule inhibitors of SHP2 tyrosine phosphatase discovered by virtual screening” (Bioorg Med Chem Lett, 2011).
Active and inactive are the calls of the source. No cut-off for these calls is given here.

How the values were obtained:
[1] = biological target: T1, Tyrosine-protein phosphatase non-receptor type 11 (Homo sapiens) (UniProt Q06124); experiment: Inhibition of SHP2 catalytic domain assessed as inhibition of pNPP to p-nitrophenol conversion at 50 uM after 5 mins by spectrophotometry
T1 sequence (whole entry): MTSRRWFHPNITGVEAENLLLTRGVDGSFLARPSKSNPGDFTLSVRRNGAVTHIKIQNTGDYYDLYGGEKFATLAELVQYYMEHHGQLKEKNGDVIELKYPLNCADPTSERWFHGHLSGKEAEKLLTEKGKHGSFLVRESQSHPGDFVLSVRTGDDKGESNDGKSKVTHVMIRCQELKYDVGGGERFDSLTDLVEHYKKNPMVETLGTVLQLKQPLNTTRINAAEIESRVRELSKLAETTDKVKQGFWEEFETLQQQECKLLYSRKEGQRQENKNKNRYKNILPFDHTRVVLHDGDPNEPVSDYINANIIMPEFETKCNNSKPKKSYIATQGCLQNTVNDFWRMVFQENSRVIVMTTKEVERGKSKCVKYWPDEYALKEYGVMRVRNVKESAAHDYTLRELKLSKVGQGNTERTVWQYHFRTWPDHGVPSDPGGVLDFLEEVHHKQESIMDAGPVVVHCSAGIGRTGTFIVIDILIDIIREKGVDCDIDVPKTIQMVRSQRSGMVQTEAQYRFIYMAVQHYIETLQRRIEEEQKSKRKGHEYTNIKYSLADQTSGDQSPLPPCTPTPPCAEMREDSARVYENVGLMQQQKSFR

[2] = biological target: Tyrosine-protein phosphatase non-receptor type 6 (Homo sapiens, UniProt P29350); experiment: Inhibition of SHP1
[3] = biological target: T2, Tyrosine-protein phosphatase non-receptor type 1 (Homo sapiens, UniProt P18031); experiment: Inhibition of PTP1B
T2 sequence (P18031 whole entry): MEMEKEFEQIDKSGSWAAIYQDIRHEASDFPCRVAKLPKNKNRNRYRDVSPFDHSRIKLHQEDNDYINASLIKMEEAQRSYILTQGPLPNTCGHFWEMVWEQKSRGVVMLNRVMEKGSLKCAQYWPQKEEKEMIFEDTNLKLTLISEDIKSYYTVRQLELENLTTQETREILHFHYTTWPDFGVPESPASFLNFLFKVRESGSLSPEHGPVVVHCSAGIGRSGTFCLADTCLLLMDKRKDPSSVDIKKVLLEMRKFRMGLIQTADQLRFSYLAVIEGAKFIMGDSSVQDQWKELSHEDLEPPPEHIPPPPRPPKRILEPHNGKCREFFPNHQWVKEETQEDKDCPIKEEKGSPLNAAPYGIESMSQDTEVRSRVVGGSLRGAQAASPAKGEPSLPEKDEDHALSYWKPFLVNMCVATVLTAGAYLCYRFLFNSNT

[4] = biological target: T3, Tyrosine-protein phosphatase non-receptor type 11 (Homo sapiens, UniProt Q06124); experiment: Inhibition of SHP2 catalytic domain assessed as inhibition of pNPP to p-nitrophenol conversion after 5 mins by spectrophotometry
T3 sequence (Q06124 whole entry): T1 sequence (whole entry)

[5] = biological target: T1, Tyrosine-protein phosphatase non-receptor type 11 (Homo sapiens); experiment: Inhibition of SHP2 catalytic domain assessed as inhibition of pNPP to p-nitrophenol conversion at 1000 uM after 5 mins by spectrophotometry

Chain of Tyrosine-protein phosphatase non-receptor type 6 (P29350 whole entry): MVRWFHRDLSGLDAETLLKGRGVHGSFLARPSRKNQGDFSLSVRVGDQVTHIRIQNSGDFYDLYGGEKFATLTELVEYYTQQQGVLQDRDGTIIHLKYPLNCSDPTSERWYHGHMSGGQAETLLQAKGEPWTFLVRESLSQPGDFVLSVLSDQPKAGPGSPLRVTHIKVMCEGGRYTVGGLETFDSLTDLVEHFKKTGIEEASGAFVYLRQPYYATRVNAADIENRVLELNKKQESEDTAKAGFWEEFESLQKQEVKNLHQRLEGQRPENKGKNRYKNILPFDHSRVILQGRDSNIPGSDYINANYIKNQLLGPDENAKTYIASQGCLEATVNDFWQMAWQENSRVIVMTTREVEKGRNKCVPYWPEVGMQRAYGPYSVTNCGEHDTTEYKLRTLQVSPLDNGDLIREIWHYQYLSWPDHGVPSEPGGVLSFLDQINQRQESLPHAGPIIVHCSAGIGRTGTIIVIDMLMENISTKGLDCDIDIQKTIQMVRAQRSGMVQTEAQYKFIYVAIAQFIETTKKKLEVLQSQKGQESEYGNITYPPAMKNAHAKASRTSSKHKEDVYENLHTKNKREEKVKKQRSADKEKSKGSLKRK

Row | Structure (SMILES) | inhibition [1] [%] | other results
1 | O=C(O)Cc1c(C(=O)O)[nH]c2ccc(C(=O)O)cc12 | 1 | –
2 | O=C(O)c1cccc(-c2ccc(/C=C/[N+](=O)[O-])o2)c1 | 95 | –
3 | O=C(O)c1cc(S(=O)(=O)Nc2ccccc2C(=O)O)ccc1Br | 4.5 | –
4 | CCOc1cc(/C=N/Nc2ccc(S(=O)(=O)O)cc2)ccc1O | 51 | –
5 | Cc1ccc(C(=O)O)cc1NC(=O)[C@H]1CC=CC[C@@H]1C(=O)O | 6 | –
6 | O=C(O)Cc1ccc2[nH]c3ccc(CC(=O)O)cc3c2c1 | 52.5 | –
7 | CC1CCN(S(=O)(=O)c2ccc3[nH]cc(C(=O)O)c(=O)c3c2)CC1 | 0.5 | –
8 | COc1ccc(/C=C2\C(=O)N(c3ccc(C(=O)O)cc3)N=C2C)cc1[N+](=O)[O-] | 41 | –
9 | O=C(O)c1ccc(NCc2ccccc2)c(NC(=O)C2CC=CCC2C(=O)O)c1 (centres undefined) | 43 | –
10 | CS(=O)(=O)N(CC(=O)Nc1ccccc1C(=O)O)c1ccc(F)cc1 | 24 | –
11 | O=[N+]([O-])c1ccc(/C=N/Nc2ccc(S(=O)(=O)O)cc2)cc1 | 91.5 | –
12 | Cc1ccccc1NS(=O)(=O)c1cccc(C(=O)Nc2ccccc2C(=O)O)c1 | 50.5 | –
13 | COc1ccc(C2Nc3ccc(C(=O)O)cc3C3C=CCC32)cc1[N+](=O)[O-] (centres undefined) | 1.5 | –
14 | O=C(O)c1ccccc1NS(=O)(=O)c1cccc2nsnc12 | 0 | –
15 | O=C(O)C1=NN(c2ccc(S(=O)(=O)O)cc2)C(=O)C1 | – | IC50 [4]: 155 µM
16 | O=C(O)C1=NN(c2ccccc2)C(=O)C1 | – | inhibition [5]: inactive
17 | Cc1cc(C(=O)O)ccc1NC(=O)C1CC=CCC1C(=O)O (centres undefined) | 13 | –
18 | Cc1cc(S(=O)(=O)O)ccc1N1N=C(C(=O)O)CC1=O | – | IC50 [4]: 41 µM
19 | COc1cc(/C=C2\SC(=S)N(C(CC(=O)O)C(=O)O)C2=O)ccc1O (centres undefined) | 69.5 | –
20 | CC1=NN(c2ccc(S(=O)(=O)O)cc2C)C(=O)C1 | – | inhibition [5]: inactive
21 | O=C(CC(Cc1ccccc1)C(=O)O)Nc1ccc([N+](=O)[O-])cc1 (centres undefined) | 1 | –
22 | O=C(O)c1ccc(NC(=O)C2CC=CCC2C(=O)O)cc1O (centres undefined) | 4.5 | –
23 | O=C(O)c1ccccc1NC(=O)c1ccccc1-c1ccccc1C(=O)O | 38 | –

Now from value to molecule, other results behind:

Row | inhibition [1] [%] | Structure (SMILES) | other results
24 | 71.5 | CC(=O)c1c(C)oc2ccc(NS(=O)(=O)c3cccc(C(=O)O)c3)cc12 | IC50 [2]: 85 µM; IC50 [3]: 38 µM; IC50 [4]: 176 µM
25 | 34.5 | O=C(O)c1ccc(NS(=O)(=O)c2cc(C(=O)O)ccc2Br)cc1 | –
26 | 4.5 | O=C(O)c1cccc(NS(=O)(=O)c2ccc3c4c(cccc24)C(=O)N3)c1 | –
27 | 40.5 | O=C(O)c1ccc(CNS(=O)(=O)c2ccc(C(=O)O)cc2)cc1 | –
28 | 8.5 | O=C(O)c1ccc(/N=N/c2c(O)c(C(=O)O)cc3ccccc23)cc1 | –
29 | 5.5 | O=C(O)/C=C/c1cccc(NS(=O)(=O)c2ccc(C(=O)O)cc2)c1 | –
30 | 7 | O=C(O)c1cccc(NS(=O)(=O)c2ccc(Cl)c(C(=O)O)c2)c1 | –
31 | 44 | O=C(O)c1ccc(NS(=O)(=O)c2cccc(C(=O)Nc3cccc(C(=O)O)c3)c2)cc1 | –
32 | 3.5 | CC(=O)Nc1ccc(OS(=O)(=O)c2cccc(C(=O)O)c2)cc1 | –
33 | 47 | O=C(O)c1ccccc1NS(=O)(=O)c1cccc(C(=O)N2CCCc3ccccc32)c1 | –
34 | 28 | Cc1ccc(/C=C/C(=O)O)cc1S(=O)(=O)Nc1ccc(C(=O)O)cc1 | –
35 | 74.5 | CC(=O)N(c1ccc2oc3c(c2c1)CCCC3)S(=O)(=O)c1ccc(C(=O)O)cc1 | IC50 [2]: 160 µM; IC50 [3]: 120 µM; IC50 [4]: 181 µM
36 | 12.5 | O=C(O)c1cc(N/C(=N\S(=O)(=O)c2ccccc2)c2ccccc2)ccc1O | –
37 | 1.5 | O=C(O)c1ccc(C2(c3ccc(C(=O)O)cc3)OC(=O)c3ccccc32)cc1 | –
38 | 10.5 | O=C(O)c1cccc(N/C(=N\S(=O)(=O)c2ccc(Cl)cc2)c2ccccc2)c1 | –
